Laboratory results taken from ChEMBL document CHEMBL1909046, “DrugMatrix in vitro pharmacology data”.

How the values were obtained:
[1] = biological target: Cytochrome P450 2C19 (Homo sapiens, UniProt P33261); also: in other assays of this panel Not Active means under 50% inhibition at 10 µM
[2] = biological target: Estrogen receptor beta (Homo sapiens, UniProt Q92731); settings: sf9; also: in other assays of this panel Not Active means under 50% inhibition at 10 µM
[3] = biological target: Cytochrome P450 2C9 (Homo sapiens, UniProt P11712); also: in other assays of this panel Not Active means under 50% inhibition at 10 µM
Cytochrome P450 2C9, sequence (P11712 whole entry): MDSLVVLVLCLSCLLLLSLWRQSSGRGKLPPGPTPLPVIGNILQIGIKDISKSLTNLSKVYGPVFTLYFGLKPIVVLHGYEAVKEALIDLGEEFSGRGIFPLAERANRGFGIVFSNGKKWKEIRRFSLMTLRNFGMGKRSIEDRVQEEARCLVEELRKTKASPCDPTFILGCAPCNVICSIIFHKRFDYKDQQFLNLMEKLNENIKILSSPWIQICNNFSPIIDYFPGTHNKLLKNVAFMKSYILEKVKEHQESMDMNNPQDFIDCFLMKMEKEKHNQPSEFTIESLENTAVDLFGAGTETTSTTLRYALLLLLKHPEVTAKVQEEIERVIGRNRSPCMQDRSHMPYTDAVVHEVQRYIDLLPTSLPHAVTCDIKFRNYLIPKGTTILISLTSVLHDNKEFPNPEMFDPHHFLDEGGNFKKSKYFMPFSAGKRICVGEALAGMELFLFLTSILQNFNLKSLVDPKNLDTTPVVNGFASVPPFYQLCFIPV

[4] = biological target: T1, Voltage-gated inwardly rectifying potassium channel KCNH2 (Homo sapiens, UniProt Q12809); settings: hek293; also: in other assays of this panel Not Active means under 50% inhibition at 10 µM
T1 sequence (Q12809 whole entry): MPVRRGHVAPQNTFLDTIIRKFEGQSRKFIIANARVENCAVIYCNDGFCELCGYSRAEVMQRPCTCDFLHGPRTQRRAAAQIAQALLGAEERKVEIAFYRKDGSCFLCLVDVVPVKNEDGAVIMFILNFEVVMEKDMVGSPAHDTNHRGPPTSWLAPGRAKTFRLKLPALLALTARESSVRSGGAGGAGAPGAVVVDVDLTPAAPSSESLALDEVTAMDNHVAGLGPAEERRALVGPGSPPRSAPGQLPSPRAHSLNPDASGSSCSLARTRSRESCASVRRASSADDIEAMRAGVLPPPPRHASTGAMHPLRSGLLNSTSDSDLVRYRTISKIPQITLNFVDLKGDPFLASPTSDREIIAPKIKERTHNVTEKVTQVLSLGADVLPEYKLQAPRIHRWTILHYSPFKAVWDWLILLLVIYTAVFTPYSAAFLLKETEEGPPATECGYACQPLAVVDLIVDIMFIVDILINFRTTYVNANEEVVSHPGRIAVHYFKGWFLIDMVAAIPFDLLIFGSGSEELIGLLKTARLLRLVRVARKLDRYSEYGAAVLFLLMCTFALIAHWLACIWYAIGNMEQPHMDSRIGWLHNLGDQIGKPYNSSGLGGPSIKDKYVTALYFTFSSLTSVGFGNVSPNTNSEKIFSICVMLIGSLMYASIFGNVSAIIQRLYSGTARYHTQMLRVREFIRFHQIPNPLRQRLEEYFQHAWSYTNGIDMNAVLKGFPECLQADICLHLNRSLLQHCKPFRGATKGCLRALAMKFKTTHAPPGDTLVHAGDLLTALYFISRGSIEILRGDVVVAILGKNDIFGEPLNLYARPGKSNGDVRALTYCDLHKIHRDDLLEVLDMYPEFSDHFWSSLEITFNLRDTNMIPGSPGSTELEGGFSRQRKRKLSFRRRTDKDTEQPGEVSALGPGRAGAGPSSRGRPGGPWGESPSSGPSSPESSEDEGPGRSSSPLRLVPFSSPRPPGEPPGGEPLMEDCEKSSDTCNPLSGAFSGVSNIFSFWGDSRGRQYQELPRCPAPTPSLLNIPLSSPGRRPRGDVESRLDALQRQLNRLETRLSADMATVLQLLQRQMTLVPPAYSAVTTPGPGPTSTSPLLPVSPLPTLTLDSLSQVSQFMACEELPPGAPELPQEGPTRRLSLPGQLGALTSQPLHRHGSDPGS

[5] = biological target: T2, Cytochrome P450 1A2 (Homo sapiens, UniProt P05177); also: in other assays of this panel Not Active means under 50% inhibition at 10 µM
T2 sequence (P05177 whole entry): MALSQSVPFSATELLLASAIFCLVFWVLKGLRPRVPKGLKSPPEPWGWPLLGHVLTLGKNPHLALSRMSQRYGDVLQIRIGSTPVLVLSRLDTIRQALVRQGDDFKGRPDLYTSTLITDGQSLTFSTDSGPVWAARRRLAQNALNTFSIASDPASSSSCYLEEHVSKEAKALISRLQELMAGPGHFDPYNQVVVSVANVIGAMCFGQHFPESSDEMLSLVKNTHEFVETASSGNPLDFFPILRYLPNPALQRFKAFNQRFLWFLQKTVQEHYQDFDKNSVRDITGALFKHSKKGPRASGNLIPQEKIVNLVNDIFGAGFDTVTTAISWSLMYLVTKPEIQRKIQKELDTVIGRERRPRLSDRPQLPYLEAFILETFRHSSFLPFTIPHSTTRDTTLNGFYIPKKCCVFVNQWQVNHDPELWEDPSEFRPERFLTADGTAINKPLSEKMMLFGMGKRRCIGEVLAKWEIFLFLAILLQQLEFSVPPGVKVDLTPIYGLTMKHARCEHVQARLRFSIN

[6] = biological target: Kappa-type opioid receptor (Homo sapiens, UniProt P41145); experiment: DRUGMATRIX: Opiate kappa (OP2, KOP) radioligand binding (ligand: [3H] Diprenorphine); format: cell membranes, HEK293, Membrane; settings: hek293; Not Active = under 50% inhibition at 10 µM
Kappa-type opioid receptor, sequence (P41145 whole entry): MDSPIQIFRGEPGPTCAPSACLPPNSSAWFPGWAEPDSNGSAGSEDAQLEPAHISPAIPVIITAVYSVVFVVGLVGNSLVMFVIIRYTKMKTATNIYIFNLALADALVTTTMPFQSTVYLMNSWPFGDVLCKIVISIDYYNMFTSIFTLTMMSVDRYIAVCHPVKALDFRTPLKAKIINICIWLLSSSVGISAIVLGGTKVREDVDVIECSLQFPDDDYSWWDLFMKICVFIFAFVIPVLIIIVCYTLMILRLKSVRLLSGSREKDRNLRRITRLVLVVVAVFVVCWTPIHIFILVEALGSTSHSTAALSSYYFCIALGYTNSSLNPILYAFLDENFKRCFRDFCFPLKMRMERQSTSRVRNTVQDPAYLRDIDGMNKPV

[7] = biological target: T1, Voltage-gated inwardly rectifying potassium channel KCNH2
[8] = biological target: T3, Androgen receptor (Rattus norvegicus, UniProt P15207); also: in other assays of this panel Not Active means under 50% inhibition at 10 µM
T3 sequence (P15207 whole entry): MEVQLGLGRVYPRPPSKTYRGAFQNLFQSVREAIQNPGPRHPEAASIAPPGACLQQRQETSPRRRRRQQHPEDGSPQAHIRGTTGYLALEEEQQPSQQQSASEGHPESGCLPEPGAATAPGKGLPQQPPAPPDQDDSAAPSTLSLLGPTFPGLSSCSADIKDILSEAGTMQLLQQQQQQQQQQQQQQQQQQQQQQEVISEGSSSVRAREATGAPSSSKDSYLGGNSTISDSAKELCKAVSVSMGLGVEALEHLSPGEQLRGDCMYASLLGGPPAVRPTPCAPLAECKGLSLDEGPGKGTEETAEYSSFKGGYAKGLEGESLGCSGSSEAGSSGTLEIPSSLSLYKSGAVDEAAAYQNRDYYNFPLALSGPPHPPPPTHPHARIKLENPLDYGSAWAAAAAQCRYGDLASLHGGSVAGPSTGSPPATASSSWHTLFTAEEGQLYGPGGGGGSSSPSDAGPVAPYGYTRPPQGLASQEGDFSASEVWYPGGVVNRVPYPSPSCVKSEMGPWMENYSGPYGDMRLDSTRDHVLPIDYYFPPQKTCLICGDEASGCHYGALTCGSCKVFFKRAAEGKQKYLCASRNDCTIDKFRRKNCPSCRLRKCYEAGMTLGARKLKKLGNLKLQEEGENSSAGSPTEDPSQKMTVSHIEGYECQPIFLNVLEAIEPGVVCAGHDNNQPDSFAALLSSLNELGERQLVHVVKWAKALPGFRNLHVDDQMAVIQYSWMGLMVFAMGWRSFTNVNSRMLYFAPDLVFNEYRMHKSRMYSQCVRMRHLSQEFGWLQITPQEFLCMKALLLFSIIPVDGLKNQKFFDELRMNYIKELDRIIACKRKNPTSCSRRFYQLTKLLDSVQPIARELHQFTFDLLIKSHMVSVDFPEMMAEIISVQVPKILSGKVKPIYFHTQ

[9] = biological target: Cytochrome P450 2D6 (Homo sapiens, UniProt P10635); also: in other assays of this panel Not Active means under 50% inhibition at 10 µM
Cytochrome P450 2D6, sequence (P10635 whole entry): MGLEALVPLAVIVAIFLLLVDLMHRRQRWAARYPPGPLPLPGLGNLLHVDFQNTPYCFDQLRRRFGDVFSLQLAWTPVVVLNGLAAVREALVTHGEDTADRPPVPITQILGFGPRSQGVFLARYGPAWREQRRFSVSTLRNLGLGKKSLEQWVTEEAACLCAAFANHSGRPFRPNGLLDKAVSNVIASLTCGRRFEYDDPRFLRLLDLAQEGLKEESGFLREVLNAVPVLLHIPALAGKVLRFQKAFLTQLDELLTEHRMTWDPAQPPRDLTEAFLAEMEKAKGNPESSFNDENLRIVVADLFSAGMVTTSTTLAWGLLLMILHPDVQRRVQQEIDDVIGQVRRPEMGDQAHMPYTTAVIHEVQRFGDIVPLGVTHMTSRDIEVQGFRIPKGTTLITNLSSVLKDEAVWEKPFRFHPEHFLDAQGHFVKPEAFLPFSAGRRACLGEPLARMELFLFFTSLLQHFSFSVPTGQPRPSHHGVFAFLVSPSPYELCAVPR

[10] = biological target: T4, Estrogen receptor (Homo sapiens, UniProt P03372); experiment: biochemical
T4 sequence (P03372 whole entry): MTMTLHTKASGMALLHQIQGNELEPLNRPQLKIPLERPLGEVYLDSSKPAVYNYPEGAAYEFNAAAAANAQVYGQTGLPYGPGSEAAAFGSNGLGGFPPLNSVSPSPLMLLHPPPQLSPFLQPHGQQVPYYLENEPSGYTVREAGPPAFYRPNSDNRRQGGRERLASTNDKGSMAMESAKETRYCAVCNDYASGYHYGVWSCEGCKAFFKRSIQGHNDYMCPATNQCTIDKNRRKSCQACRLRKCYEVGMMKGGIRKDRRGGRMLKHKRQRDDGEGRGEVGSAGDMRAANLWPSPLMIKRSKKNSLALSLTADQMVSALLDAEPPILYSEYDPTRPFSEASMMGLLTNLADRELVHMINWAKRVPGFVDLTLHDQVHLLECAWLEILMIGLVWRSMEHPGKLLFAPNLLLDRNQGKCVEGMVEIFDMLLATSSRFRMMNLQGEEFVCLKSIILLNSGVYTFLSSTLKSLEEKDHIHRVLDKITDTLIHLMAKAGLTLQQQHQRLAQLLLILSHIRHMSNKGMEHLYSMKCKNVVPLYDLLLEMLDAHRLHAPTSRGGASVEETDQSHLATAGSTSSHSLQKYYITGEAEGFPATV

Cytochrome P450 2C19, sequence (P33261 whole entry): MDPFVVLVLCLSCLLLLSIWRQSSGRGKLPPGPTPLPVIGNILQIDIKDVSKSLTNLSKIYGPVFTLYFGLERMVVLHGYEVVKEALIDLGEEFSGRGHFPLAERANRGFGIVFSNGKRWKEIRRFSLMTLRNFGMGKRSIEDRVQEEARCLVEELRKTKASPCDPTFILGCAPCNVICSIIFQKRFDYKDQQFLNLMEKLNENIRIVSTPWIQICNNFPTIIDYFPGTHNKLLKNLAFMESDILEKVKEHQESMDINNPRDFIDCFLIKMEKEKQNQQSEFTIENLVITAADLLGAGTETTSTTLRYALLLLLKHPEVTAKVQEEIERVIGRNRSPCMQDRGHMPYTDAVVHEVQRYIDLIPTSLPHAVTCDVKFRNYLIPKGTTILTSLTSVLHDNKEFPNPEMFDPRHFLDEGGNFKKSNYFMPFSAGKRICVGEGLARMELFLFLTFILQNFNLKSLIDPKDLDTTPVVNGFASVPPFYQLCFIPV
Estrogen receptor beta, sequence (Q92731 whole entry): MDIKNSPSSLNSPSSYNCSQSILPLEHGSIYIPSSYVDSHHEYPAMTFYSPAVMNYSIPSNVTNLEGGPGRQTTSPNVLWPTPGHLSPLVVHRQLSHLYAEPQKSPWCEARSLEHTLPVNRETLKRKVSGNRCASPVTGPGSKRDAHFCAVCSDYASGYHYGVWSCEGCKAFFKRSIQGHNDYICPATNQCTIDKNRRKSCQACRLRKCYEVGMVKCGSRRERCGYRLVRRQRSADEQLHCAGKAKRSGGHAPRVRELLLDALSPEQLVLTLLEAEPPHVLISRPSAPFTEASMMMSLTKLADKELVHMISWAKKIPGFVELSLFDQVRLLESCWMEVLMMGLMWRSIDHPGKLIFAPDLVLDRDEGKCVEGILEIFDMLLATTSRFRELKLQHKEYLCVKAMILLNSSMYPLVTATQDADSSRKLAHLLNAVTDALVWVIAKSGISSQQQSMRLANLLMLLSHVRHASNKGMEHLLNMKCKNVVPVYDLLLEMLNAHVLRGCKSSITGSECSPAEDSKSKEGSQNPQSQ

Row | SMILES | IC50 [1] | IC50 [2] | IC50 [3] | IC50 [4] | Ki [4] | IC50 [5] | IC50 [6] | IC50 [7] | IC50 [8] | IC50 [9] | IC50 [10] | Ki [10]
1 | CCOc1cc(N)c(Cl)cc1C(=O)NCC1CN(Cc2ccc(F)cc2)CCO1 (centres undefined) [MOSAPRIDE] | 1 µM | Not Active | 1 µM | Not Active | Not Active | 0.4 µM | Not Active | – | – | – | – | –
2 | O=C(OC[C@H]1O[C@@H](OC(=O)c2cc(O)c(O)c(OC(=O)c3cc(O)c(O)c(O)c3)c2)[C@H](OC(=O)c2cc(O)c(O)c(OC(=O)c3cc(O)c(O)c(O)c3)c2)[C@@H](OC(=O)c2cc(O)c(O)c(OC(=O)c3cc(O)c(O)c(O)c3)c2)[C@@H]1OC(=O)c1cc(O)c(O)c(OC(=O)c2cc(O)c(O)c(O)c2)c1)c1cc(O)c(O)c(OC(=O)c2cc(O)c(O)c(O)c2)c1 [TANNIC ACID] | – | – | 4.61 µM | Not Active | Not Active | 0.919 µM | Not Active | – | – | – | – | –
3 | Cc1cc2c(s1)Nc1ccccc1N=C2N1CCN(C)CC1 [OLANZAPINE] | – | – | – | – | – | – | Not Active | 100 µM | – | – | – | –
4 | Nc1nc(N)c2nc(-c3ccccc3)c(N)nc2n1 | – | Not Active | – | Not Active | Not Active | – | Not Active | – | Not Active | 10 µM | – | –
5 | C#C[C@]1(O)CC[C@H]2[C@@H]3[C@H](C)CC4=C(CCC(=O)C4)[C@H]3CC[C@@]21C [TIBOLONE] | 3 µM | Not Active | – | Not Active | Not Active | – | Not Active | – | – | – | 0.433 µM | 0.124 µM
6 | CCOC(=O)C1=C(C)NC(C)=C(C(=O)OCC)C1c1ccccc1/C=C/C(=O)OC(C)(C)C [LACIDIPINE] | 2 µM | Not Active | 2 µM | Not Active | Not Active | – | Not Active | – | – | – | – | –
7 | CC[C@H](C)[C@@H](CO[C@@H](Cc1ccccc1)C(=O)N[C@@H](CCS(C)(=O)=O)C(=O)OC(C)C)NC[C@@H](N)CS | – | Not Active | – | Not Active | Not Active | – | Not Active | – | Not Active | 0.7 µM | – | –
